Data as given in US20240360151A1 (SANOFI, priority 2023, published 2024).
pIC50: −log10 of the molar value.

What follows are molecules tested against T1, NLRP3 inflammasome (Homo sapiens, UniProt Q96P20) (assay: IL-1β secretion assay (NLRP3 IC50) in LPS-primed, nigericin-activated THP-1 cells, HTRF). Settings: monocytic THP-1 cells; LPS 10 ng/mL 3 h priming, then compound + nigericin 10 μM 2 h; relative IC50, 10 concentrations, geometric mean.
T1 construct: endogenous in cells; host or cells: THP-1 monocytic cells
Type: cell-based
Procedure: Monocytic THP-1 cells were maintained in RPMI 1640 media (Gibco 21875)+10% FBS, (Gibco 10500)+1% penicillin/streptomycin (Gibco 15140-122). Cells were then plated at 40,000 cells per well in 384-well cell culture plates (CoRNning 3542) and maintained with RPMI1640 (Gibco 11835)+5% FBS (Gibco 10500). Activation of the NLRP3 inflammasome requires both an NF-kB-dependent priming step and the addition of a NLRP3 activator. The priming step was induced by LPS (10 ng/mL, InvivoGen ref tlrl-3pelps) for 3 h at 37° C., then compound, in a 1:3 serial dilution series in DMSO (final concentration DMSO 0.1%), and the activator nigericin (Sigma Aldrich, ref: SML1779) 10 μM (final concentration) were added to the cells and co-incubated for 2 hours. 16 μL supernatant was removed, and IL-1β levels were monitored using an HTRF assay (Human IL1b Kits HTRF Cisbio ref: 62HILBPEH) according to manufacturers' instructions.
Data were expressed as percentage of inhibition (I %) as compared to a maximum signal control containing no small molecule (I %=0%) according to the formula: 1%=(1−((Sample−Min))/((Max−Min)))×100, where: • Sample: Signal obtained in the presence of each compound tested, • Max: Maximum signal in the absence of compound added, • Min: Minimum or background signal obtained in the absence of activation signal.
Relative IC50 (IC50 rel) were obtained from a dose response curve with 10 concentrations. Final IC50 rels are expressed as the geometric mean.
Relative IC50 values were estimated with Biost@t-SPEED v2.4 internal software based on SAS system using the 4-parameter logistic model according to Ratkovsky and Reedy (D. A. Ratkovsky, T. J. Reedy, Choosing near-linear parameters in the four parameters logistic model radioligands and related assays. Biometrics, 42 (1986), 575-582): Y=A+C/((1+exp(−B*(log(X)−M)))), where: • A: Lower asymptote (BOTTOM), • A+C: Upper asymptote (TOP), • M: the logarithm of the concentration estimated at the inflexion point (the logarithm of the relative IC50), • B: Slope at the inflexion point of the curve.

T1 sequence (Q96P20 whole entry): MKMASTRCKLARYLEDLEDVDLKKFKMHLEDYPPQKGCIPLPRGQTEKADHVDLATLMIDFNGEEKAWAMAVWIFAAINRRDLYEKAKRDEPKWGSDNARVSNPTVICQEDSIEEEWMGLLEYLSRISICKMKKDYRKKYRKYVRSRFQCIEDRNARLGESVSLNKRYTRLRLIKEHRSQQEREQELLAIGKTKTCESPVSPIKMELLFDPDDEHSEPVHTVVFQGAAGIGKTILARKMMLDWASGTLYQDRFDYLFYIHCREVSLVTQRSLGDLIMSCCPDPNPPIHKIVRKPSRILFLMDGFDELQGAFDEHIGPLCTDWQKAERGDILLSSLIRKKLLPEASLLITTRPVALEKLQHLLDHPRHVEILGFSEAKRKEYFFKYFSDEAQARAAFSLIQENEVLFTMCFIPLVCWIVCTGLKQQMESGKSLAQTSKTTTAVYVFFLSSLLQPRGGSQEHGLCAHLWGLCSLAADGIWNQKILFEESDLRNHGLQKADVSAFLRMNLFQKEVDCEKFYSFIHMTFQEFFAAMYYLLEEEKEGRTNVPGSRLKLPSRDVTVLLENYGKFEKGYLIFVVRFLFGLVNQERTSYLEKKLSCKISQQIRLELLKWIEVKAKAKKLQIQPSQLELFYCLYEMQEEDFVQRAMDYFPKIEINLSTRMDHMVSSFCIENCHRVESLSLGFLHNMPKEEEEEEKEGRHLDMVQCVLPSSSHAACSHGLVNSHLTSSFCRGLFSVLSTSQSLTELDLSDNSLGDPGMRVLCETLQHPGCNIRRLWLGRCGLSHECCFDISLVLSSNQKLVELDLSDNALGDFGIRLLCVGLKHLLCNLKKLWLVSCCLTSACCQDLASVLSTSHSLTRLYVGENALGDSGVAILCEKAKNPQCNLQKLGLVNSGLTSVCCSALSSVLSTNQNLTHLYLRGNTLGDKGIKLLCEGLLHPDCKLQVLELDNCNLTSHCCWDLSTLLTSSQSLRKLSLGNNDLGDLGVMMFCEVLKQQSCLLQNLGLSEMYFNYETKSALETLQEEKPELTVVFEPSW

Compound	pIC50
Cc1cc(C(F)(F)F)cc(O)c1-c1ccc(N2CCO[C@H]3CN(C)C[C@H]32)nn1 (single isomer, unassigned) [Example 333]	6.34
CCN1CCOCC2(C1)CN(c1ccc(-c3c(C)cc(C)cc3O)nn1)CCO2 (stereo not shown) [Example 208, 2-[6-(8-ethyl-1,11-dioxa-4,8-diazaspiro[5.6]dodecan-4-yl)pyridazin-3-yl]-3,5-dimethylphenol]	6.01
Cc1cc(C(F)(F)F)cc(O)c1-c1ccc(N2CC[C@@H](O)CC2=O)nn1 [Example 316, (4R)-4-hydroxy-1-[6-[2-hydroxy-6-methyl-4-(trifluoromethyl)phenyl]pyridazin-3-yl]piperidin-2-one]	6.54
Cc1cc(C)c(-c2ccc(N3CC4CCC3CN(C)C4)nn2)c(O)c1 (stereo not shown) [Example 410, 3,5-dimethyl-2-[6-(3-methyl-3,6-diazabicyclo[3.2.2]nonan-6-yl)pyridazin-3-yl]phenol]	5.66
CNC(=O)[C@H]1CN(c2ccc(-c3c(C)cc(C)cc3O)nn2)CCO1 [Example 182, (2R)-4-[6-(2-hydroxy-4,6-dimethylphenyl)pyridazin-3-yl]-N-methylmorpholine-2-carboxamide]	5.78
Cc1cc(C)c(-c2ccc(N3CCO[C@H](CC(=O)N(C)C)C3)nn2)c(O)c1 (single isomer, unassigned) [Example 150]	5.75
COc1cc(C)c(-c2ccc(N3CCO[C@H](CO)C3)nn2)c(O)c1 [Example 96, 2-[6-[(2S)-2-(hydroxymethyl)morpholin-4-yl]pyridazin-3-yl]-5-methoxy-3-methyl-phenol]	6.91
CC(=O)N1CC[C@H]2OCCN(c3ccc(-c4c(C)cccc4O)nn3)[C@H]2C1 [Example 409, 1-[(4aS,8aR)-4-[6-(2-hydroxy-6-methyl-phenyl)pyridazin-3-yl]-3,4a,5,7,8,8a-hexahydro-2H-pyrido[4,3-b][1,4]oxazin-6-yl]ethanone]	6.20
Cc1cc(C)c(-c2ccc(N3CCO[C@H](CS)C3)nn2)c(O)c1 [Example 303, 3,5-dimethyl-2-[6-[(2S)-2-(sulfanylmethyl)morpholin-4-yl]pyridazin-3-yl]phenol]	5.41
Cc1cc(Cl)cc(O)c1-c1ccc(N2CCO[C@H]3CCN(C)C[C@H]32)nn1 (single isomer, unassigned) [Example 307]	6.39
CNC(=O)[C@@H]1CN(c2ccc(-c3c(C)cc(C)cc3O)nn2)CCO1 [Example 166, (2S)-4-[6-(2-hydroxy-4,6-dimethylphenyl)pyridazin-3-yl]-N-methylmorpholine-2-carboxamide]	5.48

Results, then the molecule that gave them:

pIC50	Compound
8.70	CCN1CC[C@H]2CCN(c3ccc(-c4c(O)cccc4C(F)(F)F)nn3)[C@H]2C1 (racemic) [Example 458, 2-[6-[rac-(3aS,7aR)-6-ethyl-3,3a,4,5,7,7a-hexahydro-2H-pyrrolo[2,3-c]pyridin-1-yl]pyridazin-3-yl]-3-(trifluoromethyl)phenol]
9.00	CCc1cc(Cl)cc(O)c1-c1ccc(N2CCO[C@@H]3CCN(C)C[C@@H]32)nn1 [Example 461, 2-[6-[(4aS,8aR)-6-methyl-3,4a,5,7,8,8a-hexahydro-2H-pyrido[4,3-b][1,4]oxazin-4-yl]pyridazin-3-yl]-5-chloro-3-ethyl-phenol]
5.75	CC(=O)N1CC[C@H]2CCN(c3nnc(-c4c(C)cc(C)cc4O)cc3C(F)F)[C@H]2C1 (single isomer, unassigned) [Example 513]
9.00	CCc1cc(C)cc(O)c1-c1ccc(N2CC[C@@H]3CCN(C)C[C@@H]32)nn1 (racemic) [Example 459, 3-ethyl-5-methyl-2-[6-[rac-(3aS,7aR)-6-methyl-3,3a,4,5,7,7a-hexahydro-2H-pyrrolo[2,3-c]pyridin-1-yl]pyridazin-3-yl]phenol]
7.40	C#Cc1cc(C)c(-c2ccc(N3CCO[C@H](CO)C3)nn2)c(O)c1 [Example 508, 5-ethynyl-2-[6-[(2S)-2-(hydroxymethyl)morpholin-4-yl]pyridazin-3-yl]-3-methyl-phenol]
